Measured values published in patent publication US20240425478A1, “CYCLOPENTYLPYRAZOLE CDK2 INHIBITORS” (Genentech, Inc., priority 2021, published 2024).
Where two headings read alike, the source gives them in different places.

Assays:
[1] = target: T1, Cyclin Dependent Kinase 1/Cyclin A2 (CDK1-cycA2) (Homo sapiens, UniProt P06493); assay: CDK1-cycA2 TR-FRET (Lance) enzyme assay; assay type: biochemical; settings: Table O, enzymatic assay
T1 construct: purchased ProQinase 0134-0054-1
How it was run: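 TR-FRET (Lance) detection of phospho-4E-BP1 with a europium-labelled antibody after EDTA quench (15 mM final); signal taken as acceptor/donor ratio. Enzyme and compound were pre-incubated 30 min in HEPES pH 7.5 buffer with MgCl2, TCEP, BGG and Brij 35. Ki derived by Morrison fit.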

[2] = tested on: OVISE (JCRB1043, CCNE1-amplified); assay: OVISE EdU incorporation cell proliferation assay (CDK2-dependent); assay type: cell-based; settings: for IC50: cellular assay, read-out: CDK2 OVISE IC50; for FS SKOV-3/OVISE / FS p-H3/OVISE: fold selectivity; for FS p-H3/OVISE: cellular p-H3 IC50 over OVISE IC50; for increased fold-selectivity SKOV-3/OVISE over Comparator C: (+) sign after FS SKOV-3/OVISE; for improvement in CDK2 OVISE cell potency over Comparator C: in brackets after OVISE IC50, Comparator C 5.5 μM
How it was run: (§1)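 EdU incorporation (0.5 μM final, last 8 h) follows a 16 h compound exposure at 37 °C, 5% CO2 in RPMI plus 10% FBS, 0.5% DMSO. After fixation, imaging scores EdU-positive cells; a 4-parameter logistic fit of that fraction gives IC50.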

SKOV-3 (ATCC HTB-77) = assay: SKOV-3 EdU incorporation cell proliferation assay (CDK4/6-dependent); assay type: cell-based; settings: Homo sapiens, cellular assay, read-out: CDK4/6 SKOV-3 IC50
How it was run: as §1

[3] = target: T2, Cyclin Dependent Kinase 2/Cyclin E1 (CDK2-cycE1) (Homo sapiens, UniProt P24941); assay: CDK2-cycE1 TR-FRET (LANCE) enzyme assay; assay type: biochemical; settings: for FS CDK1/CDK2 / FS CDK4/CDK2: fold selectivity; for increased fold-selectivity CDK4/CDK2 over Comparator C: (+) sign after FS CDK4/CDK2;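 on improvement in potency against CDK2 (Ki) over Comparator C: fold lower CDK2 Ki than comparator c (Ki 0.032 µM)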
T2 construct: purchased ProQinase 0050-0055-1
How it was run: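 Kinase reaction buffer: 50 mM HEPES pH 7.5, 10 mM MgCl2, 2 mM TCEP, 0.05% BGG, 0.01% Brij 35, with 30 min compound–enzyme pre-incubation.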

[4] = target: T3, Cyclin Dependent Kinase 4/Cyclin D3 (CDK4-cycD3) (Homo sapiens, UniProt P11802); assay: CDK4-cycD3 TR-FRET (LANCE) enzyme assay; assay type: biochemical; settings: Table O, enzymatic assay
T3 construct: purchased Carna Biosciences 04-105
T3 sequence (P11802 whole entry): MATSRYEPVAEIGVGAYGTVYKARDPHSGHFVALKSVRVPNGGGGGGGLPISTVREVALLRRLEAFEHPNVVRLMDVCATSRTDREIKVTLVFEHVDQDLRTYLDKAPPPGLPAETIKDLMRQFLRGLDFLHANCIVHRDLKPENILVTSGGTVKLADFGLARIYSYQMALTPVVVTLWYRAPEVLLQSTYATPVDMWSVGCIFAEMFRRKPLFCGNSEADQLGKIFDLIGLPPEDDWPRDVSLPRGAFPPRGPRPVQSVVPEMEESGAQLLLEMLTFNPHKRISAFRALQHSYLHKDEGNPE
T3 sequence (P30281 whole entry partner): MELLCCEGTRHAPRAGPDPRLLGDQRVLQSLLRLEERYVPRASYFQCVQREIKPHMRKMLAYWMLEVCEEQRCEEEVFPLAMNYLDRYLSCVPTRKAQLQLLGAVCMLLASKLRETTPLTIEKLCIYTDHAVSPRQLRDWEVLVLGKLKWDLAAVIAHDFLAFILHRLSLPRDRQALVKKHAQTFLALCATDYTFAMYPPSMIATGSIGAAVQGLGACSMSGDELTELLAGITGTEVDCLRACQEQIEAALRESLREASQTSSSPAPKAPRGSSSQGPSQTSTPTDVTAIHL
How it was run: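 Compound dose responses pre-incubated 30 min with enzyme mix in 50 mM HEPES pH 7.5, 10 mM MgCl2, 2 mM TCEP, 0.05% BGG, 0.01% Brij 35. Reaction quenched with EDTA (15 mM final); Eu-anti-phospho-4E-BP1 TR-FRET detection, acceptor/donor ratio. Ki derived by Morrison equation.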

HCT116 cells = assay: p-H3 HCT-116 mitotic release cell proliferation assay (cellular CDK1); assay type: cell-based; settings: Homo sapiens, HCT-116; Table O, cellular assay; read-out: CDK1 p-H3 IC50
Description: Inhibition of cellular CDK1 determined by release of cells from nocodazole-induced mitotic arrest, as measured by decrease in phospho-Histone H3. Histone H3 (Ser 10) level is detected in cell lysates by producing a Fluorescence Resonance Energy Transfer (FRET) signal between two antibodies, Phospho-Histone H3 Cryptate (acting as the donor) and Phospho-Histone H3 d2 (acting as the acceptor).
Plates are allowed to rest overnight at 37° C./5% CO2. The following morning, nocodazole is diluted in complete medium, and 5 μL is added to each test well and positive control well for a final concentration of 500 nM. Plates are then incubated for 16 hours at 37° C./5% CO2. […] 10 μL of diluted compound is then transferred to the cell plate (final DMSO concentration 0.1%). Cell plates are then incubated for 4 hours in 37° C. 5% CO2. A cell lysis buffer is prepared on ice using reagents from the Phospho-Histone H3 (Ser10) cellular kit (Cisbio-64HH3PEG). Supernatant is discarded from the cell plate and 80 μL of the supplemented cell lysis buffer (1:99 dilution of the Blocking Reagent and the 1× cell lysis buffer provided in the kit) is added to each of the experimental wells. The cell lysis reaction is allowed to proceed at room temperature while shaking vigorously for 30 minutes. The 384-well HTRF (Homogeneous Time Resolved Fluorescence) plate is prepared by adding 2 μL of each diluted antibody (Phospho-Histone H3 Cryptate antibody and Phospho-Histone H3 d2 antibody diluted 19:1 in a detection buffer) and 12 μL of the supplemented cell lysis buffer to each well in the HTRF plate. 4 μL of the cell lysate is added to the prepared HTRF plate which is then sealed and the reaction is allowed to proceed for a minimum of 2 hours at room temperature.

[5] = Table O, cellular SKOV-3 IC50 over OVISE IC50
[6] = Table O, enzymatic assay, read-out: CDK2 Ki
[7] = Table O, enzymatic CDK1 Ki over CDK2 Ki
[8] = Table O, enzymatic CDK4 Ki over CDK2 Ki
[9] = Table Q, enzymatic assay, read-out: CDK2 Ki

T1 sequence (P06493 whole entry): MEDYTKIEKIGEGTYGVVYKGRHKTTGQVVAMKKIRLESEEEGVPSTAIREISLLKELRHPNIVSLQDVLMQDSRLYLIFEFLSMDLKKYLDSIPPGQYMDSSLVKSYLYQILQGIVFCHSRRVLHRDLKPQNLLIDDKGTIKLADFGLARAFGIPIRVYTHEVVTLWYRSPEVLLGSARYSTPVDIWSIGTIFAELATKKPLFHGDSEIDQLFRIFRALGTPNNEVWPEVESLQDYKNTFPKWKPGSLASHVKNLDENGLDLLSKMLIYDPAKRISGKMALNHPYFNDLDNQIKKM
T1 sequence (P20248 whole entry partner): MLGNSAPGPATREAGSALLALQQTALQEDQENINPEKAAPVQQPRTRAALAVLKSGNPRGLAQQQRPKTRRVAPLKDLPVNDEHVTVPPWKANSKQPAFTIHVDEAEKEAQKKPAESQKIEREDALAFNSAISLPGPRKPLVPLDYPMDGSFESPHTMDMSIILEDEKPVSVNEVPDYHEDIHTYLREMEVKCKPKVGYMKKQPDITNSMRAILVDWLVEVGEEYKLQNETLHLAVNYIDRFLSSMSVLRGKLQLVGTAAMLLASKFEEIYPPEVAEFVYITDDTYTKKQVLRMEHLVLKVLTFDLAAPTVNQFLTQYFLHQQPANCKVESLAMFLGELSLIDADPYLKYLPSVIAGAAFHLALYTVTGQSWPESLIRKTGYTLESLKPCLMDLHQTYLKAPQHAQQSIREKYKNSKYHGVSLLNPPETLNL

SMILES | Ki [1] [nM] | IC50 ([2]; Table O) [nM] | FS SKOV-3/OVISE [2, 5] | FS p-H3/OVISE ([2]; Table O) | IC50 (SKOV-3 (ATCC HTB-77); SK-OV-3, Table O) [µM] | Ki [3, 6] [nM] | FS CDK1/CDK2 [3, 7] | FS CDK4/CDK2 [3, 8] | Ki [4] [nM] | IC50 (HCT116 cells) [nM] | FS SKOV-3/OVISE ([2]; Table Q, cellular) | improvement in CDK2 OVISE cell potency over Comparator C ([2]; Table Q) [fold] | IC50 (SKOV-3 (ATCC HTB-77); SK-OV-3, Table Q) [µM] | Ki [3, 9] [nM] | FS CDK1/CDK2 ([3]; Table Q, enzymatic) | FS CDK4/CDK2 ([3]; Table Q, enzymatic) | other results
O=C(NC12CC(C1)C2)O[C@@H]1CC[C@H](c2cc(Nc3ccc(CO)nc3)n[nH]2)C1 [Example 9I, (1R,3S)-3-(3-((6-(hydroxymethyl)pyridin-3-yl)amino)-1H-pyrazol-5-yl)cyclopentyl bicyclo[1.1.1]pentan-1-ylcarbamate] | 8.9 | 30 | 12 | 0.23 | 0.36 | 0.38 | 23 | 97 | 37 | 6.9 | – | – | – | – | – | – | –
CC(CC(F)(F)F)NC(=O)O[C@@H]1CC[C@H](c2cc(Nc3ccc(=O)n(C)n3)n[nH]2)C1 (stereo partly drawn) [Example 6D, (1R,3S)-3-(3-((1-methyl-6-oxo-1,6-dihydropyridazin-3-yl)amino)-1H-pyrazol-5-yl)cyclopentyl (4,4,4-trifluorobutan-2-yl)carbamate] | 3.6 | 77 | 56 | 0.94 | 4.3 | 0.21 | 17 | 290 | 61 | 72 | – | – | – | – | – | – | –
CCn1nc(Nc2cc([C@H]3CC[C@@H](OC(=O)NC(C)C)C3)[nH]n2)ccc1=O [Example 2HH, (1R,3S)-3-(3-((1-ethyl-6-oxo-1,6-dihydropyridazin-3-y1)amino)-1H-pyrazol-5-y1)cyclopenty1 isopropylcarbamate] | 6.9 | 60 | 77 | 0.53 | 4.6 | 0.43 | 16 | 490 | 210 | 32 | – | – | – | – | – | – | –
COc1ncc(Nc2cc([C@H]3CC[C@@H](OC(=O)NC(C)C)C3)[nH]n2)c(C)n1 [Example 2X, (1R,3S)-3-(3-((2-methoxy-4-methylpyrimidin-5-yl)amino)-1H-pyrazol-5-yl)cyclopenty1 isopropylcarbamate] | 1200 | 2800 | >7.1 | – | > 20 | 59 | 20 | 64 | 3800 | – | > 7.1 | 2 | > 20 | 59 | 20 | 64 | increased fold-selectivity SKOV-3/OVISE over Comparator C ([2]; Table Q): (+) (The (+) sign in Table Q signifies desirable increased fold-selectivity of the exemplary compounds over Comparator C); improvement in potency against CDK2 (Ki) over Comparator C [3]: 0.5 fold; increased fold-selectivity CDK4/CDK2 over Comparator C ([3]; Table Q): (+) (The (+) sign in Table Q signifies desirable increased fold-selectivity of the exemplary compounds over Comparator C)
CC(C)NC(=O)O[C@@H]1CC[C@H](c2cc(Nc3cccn(C)c3=O)n[nH]2)C1 [Example 2BB, (1R,3S)-3-(3-((1-methyl-2-oxo-1,2-dihydropyridin-3-yl)amino)-1H-pyrazol-5-y1)cyclopenty1 isopropylcarbamate] | 32000 | > 20000 | 1.0 | – | > 20 | 1100 | 29 | 6.3 | 6900 | – | 1.0 | 0.28 | > 20 | 1100 | 29 | 6.3 | IC50 ([2]; Table Q): > 20000 nM; improvement in potency against CDK2 (Ki) over Comparator C ([3]; Table Q, in brackets after CDK2 Ki, Comparator C 0.032 μM): 0.3 fold
O=C(NC1(C(F)(F)F)CC1)O[C@@H]1CC[C@H](c2cc(Nc3cccnn3)n[nH]2)C1 [Example 5, (1R,3S)-3-(3-(pyridazin-3-ylamino)-1H-pyrazol-5-yl)cyclopentyl (1-(trifluoromethyl)cyclopropyl)carbamate] | 270 | 460 | 13 | – | 5.8 | 11 | 25 | 25 | 280 | – | – | – | – | – | – | – | –
CNc1ncc(Nc2cc([C@H]3CC[C@@H](OC(=O)NC(C)C)C3)[nH]n2)cn1 [Example 2GG, (1R,3S)-3-(3-((2-(methylamino)pyrimidin-5-yl)amino)-1H-pyrazol-5-yl)cyclopentyl isopropylcarbamate] | 8800 | > 20000 | 1 | – | > 20 | 480 | 18 | 31 | 15000 | – | – | – | – | – | – | – | –
C[C@H](NC(=O)O[C@@H]1CC[C@H](c2cc(Nc3cccnn3)n[nH]2)C1)C(F)(F)F (single isomer, unassigned) [Example 5A] | 1700 | 2200 | >9 | – | > 20 | 63 | 27 | 33 | 2100 | – | – | – | – | – | – | – | –
CNC(=O)c1ncc(Nc2cc([C@H]3CC[C@@H](OC(=O)NC45CC(C4)C5)C3)[nH]n2)c(C)n1 [Example 9F, (1R,3S)-3-(3-((4-methyl-2-(methylcarbamoyl)pyrimidin-5-yl)amino)-1H-pyrazol-5-yl)cyclopentyl bicyclo[1.1.1]pentan-1-ylcarbamate] | 80 | 1200 | >17 | – | > 20 | 5 | 16 | 92 | 460 | – | – | – | – | – | – | – | –
CC(C)NC(=O)O[C@@H]1CC[C@H](c2cc(Nc3cc(=O)[nH]cn3)n[nH]2)C1 [Example 2CC, (1R,3S)-3-(3-((6-oxo-1,6-dihydropyrimidin-4-yl)amino)-1H-pyrazol-5-yl)cyclopentyl isopropylcarbamate] | 34 | 2000 | >10 | – | > 20 | 0.33 | 100 | 390 | 130 | – | > 10 | 2.8 | > 20 | 0.33 | 100 | 390 | increased fold-selectivity SKOV-3/OVISE over Comparator C ([2]; Table Q): (+) (The (+) sign in Table Q signifies desirable increased fold-selectivity of the exemplary compounds over Comparator C); improvement in potency against CDK2 (Ki) over Comparator C [3]: 97 fold; increased fold-selectivity CDK1/CDK2 over Comparator C ([3]; Table Q, (+) sign after FS CDK1/CDK2): (+) (The (+) sign in Table Q signifies desirable increased fold-selectivity of the exemplary compounds over Comparator C); increased fold-selectivity CDK4/CDK2 over Comparator C ([3]; Table Q): (+) (The (+) sign in Table Q signifies desirable increased fold-selectivity of the exemplary compounds over Comparator C); Ki ([3]; read-out: CDK2 activity / potency (enzymatic assay)): ≤ 1 nM
